# Test results taken from patent US20160017326A1, “MICRORNAS AS FUNCTIONAL MEDIATORS AND BIOMARKERS OF BONE METASTASIS” (THE TRUSTEES OF PRINCETON UNIVERSITY, priority 2013, published 2016).
# Columns and labels:
# Format in all cases: cell-based, mouse
# Mitf 3'UTR = assay: 3'UTR luciferase reporter assay, Mitf; details: co-transfection in HeLa, relative to negative control miRNA
# Protocol: (§1) For NFκB reporter assays the pGL4.32 [luc2P/NF-κB-RE/Hygro] vector (Promega) was co-transfected with a Renilla-luciferase plasmid into cells. After 24 hours, cells were treated with 50 ng/ml RANKL, 50 ng/ml sICAM1, or 10 ng/ml TNFα for analysis at indicated timepoints. Wildtype and mutant 3′UTRs were PCR amplified from mouse genomic DNA. The 3′UTRs were cloned into the pMIR-REPORT vector (AMBION®) downstream of firefly luciferase. Mutations in miRNA target sites were generated using the QuikChange Multi site-directed mutagenesis kit (Stratagene). 5×10^4 HeLa cells were plated in 24-well plates 24 hours prior to transfection. 200 ng of reporter plasmid was co-transfected with the renilla-luciferase control plasmid and 10 pM pre-miRNA precursor or precursor control (AMBION®) using Lipofectamine 2000 (Invitrogen). Cells were lysed 24 hours after transfection and assayed for luciferase activity using the Glomax 96 Luminometer (Promega). Primer sequences for cloning or mutagenesis are listed below:
# (§2) Reporter constructs were co-transfected with pre-miRs, as well as a Renilla luciferase plasmid for normalization.
# Traf6 3'UTR = assay: 3'UTR luciferase reporter assay, Traf6; details: co-transfection in HeLa
# Protocol: as §1, §2
# Mmp14 3'UTR = assay: 3'UTR luciferase reporter assay, Mmp14; details: co-transfection in HeLa
# Protocol: as §1, §2
# Calcr 3'UTR = assay: 3'UTR luciferase reporter assay, Calcr; details: co-transfection in HeLa
# Protocol: as §1, §2
Substance,"luciferase reporter activity, Mitf 3'UTR (Mitf 3'UTR)",reduction of Mitf expression (3'UTR reporter) (Mitf 3'UTR) [%],"luciferase reporter activity, Traf6 3'UTR (Traf6 3'UTR)","luciferase reporter activity, Mmp14 3'UTR (Mmp14 3'UTR)","luciferase reporter activity, Calcr 3'UTR (Calcr 3'UTR)"
"miR-219: miRNA, SEQ ID NO: 66; delivered as pre-miRNA precursor; targets Mitf and Traf6 (UGAUUGUCCAAACGCAAUUCU; delivered as pre-miRNA precursor, chemistry not given here; listed as Homo sapiens)",repress expression of Mitf,~20,repressed,,
"miR-133a: miRNA, SEQ ID NO: 61; delivered as pre-miRNA precursor; targets Mitf and Mmp14 (UUUGGUCCCCUUCAACCAGCUA; delivered as pre-miRNA precursor, chemistry not given here; listed as Homo sapiens)",repress expression of Mitf,,,repressed,
"miR-141: miRNA, SEQ ID NO: 69; delivered as pre-miRNA precursor; targets Mitf and Calcr (UAACACUGUCUGGUAACGAUGU; delivered as pre-miRNA precursor, chemistry not given here; listed as Homo sapiens)",repress expression of Mitf,~50,,,repressed
"miR-190: miRNA, SEQ ID NO: 64; delivered as pre-miRNA precursor; targets Calcr (UGAUAUGUUUGAUAUAUUAGGU; delivered as pre-miRNA precursor, chemistry not given here; listed as Homo sapiens)",,,,,able to repress
